Our source for the IC50 and EC50 values is US20230233569A1 (Revolution Medicines, Inc., priority 2020, published 2023).

In test [1] the test system is Capan-1 (K-Ras G12V). Kind of test: CellTiter-Glo cell viability assay, 5-day treatment. Format: cell-based. The conditions noted are these: Homo sapiens, CAPAN-1, 120 h, 5-day treatment; read-out: Capan-1 Cell Viability assay data (K-Ras G12V, IC50). The procedure, abridged: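 Five-day compound treatment of plated cells; luminescent read after ~30 min at RT. Percent-of-DMSO data fit to a four-parameter logistic model.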

A further test deals with NRAS WT (Homo sapiens, UniProt P01111+P62937). Kind of test: Disruption of BRAF RBD interaction with Ras (FRET / MOA assay, with Cyclophilin A). Format: biochemical. The following applies: NRAS WT; read-out: NRAS WT FRET data IC50. The essentials: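 TR-FRET in 25 mM HEPES pH 7.3, 100 mM NaCl, 5 mM MgCl2, 0.1% BSA: 25 μM Cyclophilin A, 12.5 nM His6-Ras-GMPPNP, 50 nM GST-BRAF RBD with compound (10-point 3-fold series from 30 μM), 3 h at 25° C. Anti-His Eu/anti-GST APC added, 1.5 h more; IC50 from decreased FRET ratio versus DMSO.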
NRAS WT, sequence (P01111 whole entry): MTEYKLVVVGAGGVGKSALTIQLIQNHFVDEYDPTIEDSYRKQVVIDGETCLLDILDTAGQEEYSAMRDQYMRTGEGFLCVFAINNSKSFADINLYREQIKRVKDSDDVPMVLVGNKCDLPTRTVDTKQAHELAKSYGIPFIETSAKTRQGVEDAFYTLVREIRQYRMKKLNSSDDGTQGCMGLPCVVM
NRAS WT, sequence (P62937 whole entry): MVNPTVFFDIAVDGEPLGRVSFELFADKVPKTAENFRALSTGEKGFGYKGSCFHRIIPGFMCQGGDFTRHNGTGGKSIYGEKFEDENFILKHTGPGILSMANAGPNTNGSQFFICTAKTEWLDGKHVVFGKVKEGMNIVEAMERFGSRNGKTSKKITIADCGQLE

The subject of the next test is AsPC-1 (K-Ras G12D). The experiment in a line: Potency assay: pERK, other cell line. It is filed as cell-based. The following applies: Homo sapiens, ASPC1.
Test [2] relates to Capan-1 (K-Ras G12V). Kind of test: Potency assay: pERK, other cell line. Format: cell-based. The conditions noted are these: Homo sapiens.

Broadly, the IC50 is the concentration that inhibits the measured activity by half. In general, EC50 refers to the concentration at which the effect is half-maximal. With `CCn1c(-c2cccnc2[C@H](C)OC)c2c3cc(ccc31)-c1cc(O)cc(c1)C[C@H](NC(=O)[C@H](C(C)C)N(C)C(=O)[C@H]1CCN(C(=O)OC)C1)C(=O)N1CCC[C@H](N1)C(=O)OCC(C)(C)C2` (atropisomer, axis not shown) [Example A3], the IC50 with Capan-1 (K-Ras G12V) [1] and at NRAS WT was 0.01 to 0.1 µM throughout. Moreover, the EC50 in the test on AsPC-1 (K-Ras G12D) stood at 0.144 µM; with Capan-1 (K-Ras G12V) [2], 0.008 µM.
